Here are results for three compounds from ChEMBL document CHEMBL1159136, “Dipeptide mimetics can substitute for the receptor activation domain resulting in highly potent analogues of hPTH(136)” (Bioorg Med Chem Lett, 1996).

The test system of test [1] is OK-1. Briefly: Displacement of [125I]-chick PTHrP-(1-36)-NH2 from opossum (OK-1) kidney cells. It counts as functional.
Test [2] relates to UMR106-06. Briefly: Compound was evaluated for the intrinsic activity for accumulation of cyclic AMP in UMR10606 (rat osteosarcoma) cells. Format: functional.
For test [3], the system named is OK-1. Briefly: Compound was evaluated for the intrinsic activity for accumulation of cyclic AMP in OK-1 cells. Format: functional, opossum.
Test [4] concerns UMR106-06. Briefly: Compound was evaluated for the accumulation of cyclic AMP in UMR10606 (rat osteosarcoma) cells. It counts as functional, cell-based. The settings on record: Rattus norvegicus, UMR106-06.
Test [5] has as its system OK-1. The experiment in a line: Accumulation of cyclic AMP in OK-1 cells. Format: functional, cell-based, opossum. As to conditions: opossum, OK-1.

Square brackets hold non-standard residues; d marks the D form. Peptide text beside a SMILES is read from it. * marks the point of attachment. X5 = C[C@H](/C=C(\F)[C@H](C)N)C(=O)*; X4 = CC(=O)N(CC(=O)*)C(=O)[C@H](C)N; N(iPr)Gly = CC(C)NCC(=O)O

Consider `CC[C@H](C)[C@H](NC(=O)[C@H](CCC(=O)O)NC(=O)[C@H](CO)NC(=O)[C@H](C)/C=C(\F)[C@H](C)N)C(=O)N[C@@H](CCC(N)=O)C(=O)N[C@@H](CC(C)C)C(=O)N[C@@H](CCSC)C(=O)N[C@@H](Cc1c[nH]cn1)C(=O)N[C@@H](CC(N)=O)C(=O)N[C@@H](CC(C)C)C(=O)NCC(=O)N[C@@H](CCCCN)C(=O)N[C@@H](Cc1c[nH]cn1)C(=O)N[C@@H](CC(C)C)C(=O)N[C@@H](CC(N)=O)C(=O)N[C@@H](CO)C(=O)N[C@@H](CCSC)C(=O)N[C@@H](CCC(=O)O)C(=O)N[C@@H](CCCN=C(N)N)C(=O)N[C@H](C(=O)N[C@@H](CCC(=O)O)C(=O)N[C@@H](Cc1c[nH]c2ccccc12)C(=O)N[C@@H](CC(C)C)C(=O)N[C@@H](CCCN=C(N)N)C(=O)N[C@@H](CCCCN)C(=O)N[C@@H](CCCCN)C(=O)N[C@@H](CC(C)C)C(=O)N[C@@H](CCC(N)=O)C(=O)N[C@@H](CC(=O)O)C(=O)N[C@H](C(=O)N[C@@H](Cc1c[nH]cn1)C(=O)N[C@@H](CC(N)=O)C(=O)N[C@@H](Cc1ccccc1)C(=O)N[C@H](C(=O)N[C@@H](C)C(N)=O)C(C)C)C(C)C)C(C)C` (X5-SEIQLMHNLGKHLNSMERVEWLRKKLQDVHNFVA-NH2), for which the pKD in the test with OK-1 [1] was found to be 8.2. Besides, the results for the Intrinsic activity in the test with UMR106-06 [2] and with OK-1 [3] were 0.95 and 0.6, respectively. In addition, the EC50 in the test on UMR106-06 [4] was 13 nM; with OK-1 [5] it was 9.1 nM.

Take `CC[C@H](C)[C@H](NC(=O)[C@H](CCC(=O)O)NC(=O)[C@H](CO)NC(=O)CN(C(C)=O)C(=O)[C@H](C)N)C(=O)N[C@@H](CCC(N)=O)C(=O)N[C@@H](CC(C)C)C(=O)N[C@@H](CCSC)C(=O)N[C@@H](Cc1c[nH]cn1)C(=O)N[C@@H](CC(N)=O)C(=O)N[C@@H](CC(C)C)C(=O)NCC(=O)N[C@@H](CCCCN)C(=O)N[C@@H](Cc1c[nH]cn1)C(=O)N[C@@H](CC(C)C)C(=O)N[C@@H](CC(N)=O)C(=O)N[C@@H](CO)C(=O)N[C@@H](CCSC)C(=O)N[C@@H](CCC(=O)O)C(=O)N[C@@H](CCCN=C(N)N)C(=O)N[C@H](C(=O)N[C@@H](CCC(=O)O)C(=O)N[C@@H](Cc1c[nH]c2ccccc12)C(=O)N[C@@H](CC(C)C)C(=O)N[C@@H](CCCN=C(N)N)C(=O)N[C@@H](CCCCN)C(=O)N[C@@H](CCCCN)C(=O)N[C@@H](CC(C)C)C(=O)N[C@@H](CCC(N)=O)C(=O)N[C@@H](CC(=O)O)C(=O)N[C@H](C(=O)N[C@@H](Cc1c[nH]cn1)C(=O)N[C@@H](CC(N)=O)C(=O)N[C@@H](Cc1ccccc1)C(=O)N[C@H](C(=O)N[C@@H](C)C(N)=O)C(C)C)C(C)C)C(C)C` (X4-SEIQLMHNLGKHLNSMERVEWLRKKLQDVHNFVA-NH2): in the test with OK-1 [1], the pKD is given as 7.1. In addition, the Intrinsic activity in the test on UMR106-06 [2] is 0.8; in the test with OK-1 [3], 0.2. Moreover, the values for the EC50 in the test on UMR106-06 [4] and in the test with OK-1 [5] were 958 nM and 117 nM, respectively.

Take `CC[C@H](C)[C@H](NC(=O)[C@H](CCC(=O)O)NC(=O)[C@H](CO)NC(=O)CN(C(=O)[C@H](C)N)C(C)C)C(=O)N[C@@H](CCC(N)=O)C(=O)N[C@@H](CC(C)C)C(=O)N[C@@H](CCSC)C(=O)N[C@@H](Cc1c[nH]cn1)C(=O)N[C@@H](CC(N)=O)C(=O)N[C@@H](CC(C)C)C(=O)NCC(=O)N[C@@H](CCCCN)C(=O)N[C@@H](Cc1c[nH]cn1)C(=O)N[C@@H](CC(C)C)C(=O)N[C@@H](CC(N)=O)C(=O)N[C@@H](CO)C(=O)N[C@@H](CCSC)C(=O)N[C@@H](CCC(=O)O)C(=O)N[C@@H](CCCN=C(N)N)C(=O)N[C@H](C(=O)N[C@@H](CCC(=O)O)C(=O)N[C@@H](Cc1c[nH]c2ccccc12)C(=O)N[C@@H](CC(C)C)C(=O)N[C@@H](CCCN=C(N)N)C(=O)N[C@@H](CCCCN)C(=O)N[C@@H](CCCCN)C(=O)N[C@@H](CC(C)C)C(=O)N[C@@H](CCC(N)=O)C(=O)N[C@@H](CC(=O)O)C(=O)N[C@H](C(=O)N[C@@H](Cc1c[nH]cn1)C(=O)N[C@@H](CC(N)=O)C(=O)N[C@@H](Cc1ccccc1)C(=O)N[C@H](C(=O)N[C@@H](C)C(N)=O)C(C)C)C(C)C)C(C)C` (H-A[N(iPr)Gly]SEIQLMHNLGKHLNSMERVEWLRKKLQDVHNFVA-NH2): the pKD with OK-1 [1] stood at 7.4. Moreover, the Intrinsic activity is on record as 0.05 in the test on UMR106-06 [2] and 0.5 in the test on OK-1 [3]. Also, the EC50 came to 30 nM in the test with UMR106-06 [4] and 97.2 nM with OK-1 [5].

In general, pKD refers to the negative decadic logarithm of the KD, by convention in mol/L. Read a high pKD as a low KD. Usually EC50 stands for the midpoint of the concentration-response curve. A higher EC50 goes with a need for much substance.
